This passage reports EC50 and CC50 results from US12030904B2 (priority 2020, dated 2024).

Each structure is given as a SMILES string. Read-outs that look alike come from different tables or passages of the source. Bounds are passed on as bounds.

In data set [1] the test system is Recombinant Respiratory Syncytial virus strain A2 containing the firefly luciferase reporter (RSV-Fluc). In words: microbe, parasite or virus in culture. The format is cell-based. The settings on record: human respiratory syncytial virus, NHBE.
Data set [2] concerns SARS-CoV-2. In words: microbe, parasite or virus in culture. The format is cell-based.
A short description of data set [3]: A549 cytotoxicity analysis (CellTiter-Glo). The format is cell-based. The following applies: human, A549 cells. On the procedure: The cytotoxicity of compounds was determined in A549 cells in the following manner. Compounds (40 nL) were spotted onto 384-well Grenier plates prior to seeding 5000 A549 cells/well in a volume of 40 μL culture medium. The plates were incubated at 37° C. for 48 hours with 5% CO2. On day 2, 40 μL of CellTiter-Glo (Promega) was added and mixed 5 times. Plates were read for luminescence on an Envision (PerkinElmer) and the CC50 (compound concentration for reducing 50% of luminescence signal as a measure of cell viability) were calculated using a nonlinear regression model (four parameters). Two experiments were performed with technical duplicates.

Data set [4] is described as follows: MT4 cytotoxicity (CC50). The following applies: human, MT4 cells.
[5] abbreviates: 72 h, read-out: RSV-Fluc EC50 (NHBE), NHBE cells, three days, Table 1.
Where [6] appears, read: Severe acute respiratory syndrome coronavirus 2, 48 h, read-out: SARS-CoV-2 EC50.
[7] abbreviates: 72 h, read-out: RSV-Fluc EC50 (NHBE), NHBE cells, three days, Table 2.
The mark [8] stands for this setting: Severe acute respiratory syndrome coronavirus 2, read-out: SARS EC50.

Turning to `CCCCCCCCCCCCCCCCCCOC[C@H](COP(=O)(O)OC[C@H]1O[C@@](C#N)(c2ccc3c(N)ncnn23)[C@H](O)[C@@H]1O)OCc1ccc(C#N)cc1` [Example 9, ((2R,3S,4R,5R)-5-(4-aminopyrrolo[2,1-f][1,2,4]triazin-7-yl)-5-cyano-3,4-dihydroxytetrahydrofuran-2-yl)methyl ((R)-2-((4-cyanobenzyl)oxy)-3-(octadecyloxy)propyl) hydrogen phosphate], the concentration giving a half-maximal response (EC50) (in general, the midpoint of the concentration-response curve) in data set [1] (setting [5]) was 50 nM; in data set [2] (setting [6]) it was 270 nM. Moreover, in data set [3] (48 hours, Table 1), it took 30000 nM to reach half-maximal cytotoxicity (CC50 at 48 h). In data set [4] (MT4 CC50, Table 1a), the midpoint of cytotoxicity, the CC50, lay at 1430 nM.

`CCCCCCCCCCCCCCCCOC[C@H](COP(=O)(O)OC[C@H]1O[C@@](C#N)(c2ccc3c(N)ncnn23)[C@H](O)[C@@H]1O)OCc1cc(F)cc(C#N)c1` [Example 71, ((2R,3S,4R,5R)-5-(4-aminopyrrolo[2,1-f][1,2,4]triazin-7-yl)-5-cyano-3,4-dihydroxytetrahydrofuran-2-yl)methyl ((R)-2-((3-cyano-5-fluorobenzyl)oxy)-3-(hexadecyloxy)propyl) hydrogen phosphate]: the EC50 in data set [1] (setting [7]) stood at 30 nM; in data set [1] (read-out: RSV EC50, Table 2a), 3 nM; in data set [2] (Severe acute respiratory syndrome coronavirus 2, Table 3, read-out: SARS-CoV-2 EC50), 130 nM; in data set [2] (setting [8]) it was 130 nM. Besides, in data set [3] (Table 3), the CC50 (as a rule, the concentration giving 50% cytotoxicity) at 48 h is 370 nM. This molecule displayed a CC50 in data set [4] (MT4 CC50, Table 2a) of 404 nM.

On to `CCCCCCCCCCCCCCCCCCOC[C@H](COP(=O)(O)OC[C@H]1O[C@@](C#N)(c2ccc3c(N)ncnn23)[C@H](O)[C@@H]1O)OCc1ccc(OC)cc1` [Example 10, ((2R,3S,4R,5R)-5-(4-aminopyrrolo[2,1-f][1,2,4]triazin-7-yl)-5-cyano-3,4-dihydroxytetrahydrofuran-2-yl)methyl ((R)-2-((4-methoxybenzyl)oxy)-3-(octadecyloxy)propyl) hydrogen phosphate], for which the EC50 in data set [1] (setting [5]) is 60 nM; in data set [2] (setting [6]), 300 nM. Besides, the CC50 at 48 h in data set [3] (48 hours, Table 1) worked out at 20000 nM. Half-maximal cytotoxicity in data set [4] (MT4 CC50, Table 1a) (CC50) was put at 3430 nM.

Take `CCCCCCCCCCCCCCCCOC[C@H](COP(=O)(O)OC[C@H]1O[C@@](C#N)(c2ccc3c(N)ncnn23)[C@H](O)[C@@H]1O)OCc1ccccc1` [Example 5, ((2R,3S,4R,5R)-5-(4-aminopyrrolo[2,1-f][1,2,4]triazin-7-yl)-5-cyano-3,4-dihydroxytetrahydrofuran-2-yl)methyl ((R)-2-(benzyloxy)-3-(hexadecyloxy)propyl) hydrogen phosphate]: the EC50 in data set [1] (setting [5]) stood at 50 nM; in data set [2] (setting [6]) it was 480 nM. In addition, the CC50 at 48 h in data set [3] (48 hours, Table 1) is 19000 nM. In addition, in data set [4] (MT4 CC50, Table 1a), the cytotoxic concentration (CC50) is 6290 nM.

For the molecule `CCCCCCCCCCCCCCCCCCOC[C@@H](COP(=O)(O)OC[C@H]1O[C@@](C#N)(c2ccc3c(N)ncnn23)[C@H](O)[C@@H]1O)OCc1ccccc1` [Example 18, ((2R,3S,4R,5R)-5-(4-aminopyrrolo[2,1-f][1,2,4]triazin-7-yl)-5-cyano-3,4-dihydroxytetrahydrofuran-2-yl)methyl ((S)-2-(benzyloxy)-3-(octadecyloxy)propyl) hydrogen phosphate], the half-maximal effective concentration (EC50) came out at 110 nM in data set [1] (setting [5]) and 320 nM in data set [2] (setting [6]). For the same molecule, the CC50 at 48 h in data set [3] (48 hours, Table 1) is > 50000 nM.

Consider `CCCCCCCCCCCCCCCCCCCOC[C@H](COP(=O)(O)OC[C@H]1O[C@@](C#N)(c2ccc3c(N)ncnn23)[C@H](O)[C@@H]1O)OCc1cc(F)cc(C#N)c1` [Example 70, ((2R,3S,4R,5R)-5-(4-aminopyrrolo[2,1-f][1,2,4]triazin-7-yl)-5-cyano-3,4-dihydroxytetrahydrofuran-2-yl)methyl ((R)-2-((3-cyano-5-fluorobenzyl)oxy)-3-(nonadecyloxy)propyl) hydrogen phosphate], for which the EC50 is 60 nM in data set [1] (setting [7]) and 66 nM in data set [1] (read-out: RSV EC50, Table 2a). In data set [3] (Table 3), this molecule returned a CC50 at 48 h of 1100 nM. This molecule yielded a CC50 in data set [4] (MT4 CC50, Table 2a) of 854 nM.

Take `CCCCCCCCCCCCCCCCCOC[C@H](COP(=O)(O)OC[C@H]1O[C@@](C#N)(c2ccc3c(N)ncnn23)[C@H](O)[C@@H]1O)OCc1cccc(C#N)c1` [Example 34, ((2R,3S,4R,5R)-5-(4-aminopyrrolo[2,1-f][1,2,4]triazin-7-yl)-5-cyano-3,4-dihydroxytetrahydrofuran-2-yl)methyl ((R)-2-((3-cyanobenzyl)oxy)-3-(heptadecyloxy)propyl) hydrogen phosphate]: the concentration for a half-maximal effect (EC50) was found to be 25 nM in data set [1] (read-out: RSV EC50, Table 2a) and 582 nM in data set [2] (setting [8]). For the same molecule, in data set [4] (MT4 CC50, Table 2a), the CC50 was found to be 550 nM.

For `CCCCCCCCCCCCCCCCCCOC[C@H](COP(=O)(O)OC[C@H]1O[C@@](C#N)(c2ccc3c(N)ncnn23)[C@H](O)[C@@H]1O)OCC(C)C` [Example 46, ((2R,3S,4R,5R)-5-(4-aminopyrrolo[2,1-f][1,2,4]triazin-7-yl)-5-cyano-3,4-dihydroxytetrahydrofuran-2-yl)methyl ((R)-2-isobutoxy-3-(octadecyloxy)propyl) hydrogen phosphate], the EC50 in data set [1] (setting [7]) turned out to be 1100 nM; in data set [1] (read-out: RSV EC50, Table 2a), 1090 nM; in data set [2] (setting [8]), 2470 nM. This molecule also came in with a CC50 in data set [4] (MT4 CC50, Table 2a) of 50000 nM.

For the molecule `CCCCCCCCCCCCCCOC[C@H](COP(=O)(O)OC[C@H]1O[C@@](C#N)(c2ccc3c(N)ncnn23)[C@H](O)[C@@H]1O)OCc1ccc(C#N)cc1F` [Example 101, [(2R,3S,4R,5R)-5-(4-aminopyrrolo[2,1-f][1,2,4]triazin-7-yl)-5-cyano-3,4-dihydroxy-tetrahydrofuran-2-yl]methyl [(2R)-2-[(4-cyano-2-fluoro-phenyl)methoxy]-3-tetradecoxy-propyl] hydrogen phosphate], the EC50 in data set [1] (read-out: RSV EC50, Table 4) was 20 nM; in data set [2] (setting [8]), 130 nM. The half-maximal cytotoxic concentration (CC50) in data set [4] (MT4 CC50, Table 4) was 5110 nM.

With `CCCCCCCCCCCCCCCCOCCCCOP(=O)(O)OC[C@H]1O[C@@](C#N)(c2ccc3c(N)ncnn23)[C@H](O)[C@@H]1O` [Example 25, ((2R,3S,4R,5R)-5-(4-aminopyrrolo[2,1-f][1,2,4]triazin-7-yl)-5-cyano-3,4-dihydroxytetrahydrofuran-2-yl)methyl (4-(hexadecyloxy)butyl) hydrogen phosphate], the EC50 in data set [1] (setting [7]) came to 70 nM; in data set [1] (read-out: RSV EC50, Table 2a), 263 nM; in data set [2] (setting [8]) it was 7460 nM. In addition, in data set [4] (MT4 CC50, Table 2a), the CC50 was 48900 nM.

Turning to `CCCCCCCCCCCCCCCCCCOC[C@H](COP(=O)(O)OC[C@H]1O[C@@](C#N)(c2ccc3c(N)ncnn23)[C@H](O)[C@@H]1O)OCc1ccc(C)cc1` [Example 40, ((2R,3S,4R,5R)-5-(4-aminopyrrolo[2,1-f][1,2,4]triazin-7-yl)-5-cyano-3,4-dihydroxytetrahydrofuran-2-yl)methyl ((R)-2-((4-methylbenzyl)oxy)-3-(octadecyloxy)propyl) hydrogen phosphate], the EC50 in data set [1] (setting [7]) is 84 nM; in data set [1] (read-out: RSV EC50, Table 2a), 84 nM; in data set [2] (setting [8]), 185 nM. In addition, in data set [4] (MT4 CC50, Table 2a), the CC50 was 2240 nM.

On to `CCCCCCCCCCCCCCOCCCOP(=O)(O)OC[C@H]1O[C@@](C#N)(c2ccc3c(N)ncnn23)[C@H](O)[C@@H]1O` [Example 58, ((2R,3S,4R,5R)-5-(4-Aminopyrrolo[2,1-f][1,2,4]triazin-7-yl)-5-cyano-3,4-dihydroxytetrahydrofuran-2-yl)methyl (3-(tetradecyloxy)propyl) hydrogen phosphate], for which the EC50 in data set [1] (setting [7]) was 70 nM; in data set [1] (read-out: RSV EC50, Table 2a) it was 70 nM; in data set [2] (setting [8]) it was 10000 nM. Half-maximal cytotoxicity in data set [4] (MT4 CC50, Table 2a) (CC50) was put at 13000 nM.

In the case of `CCCCCCCCCCCCCCCCCCOC[C@H](COP(=O)(O)OC[C@H]1O[C@@](C#N)(c2ccc3c(N)ncnn23)[C@H](O)[C@@H]1O)OCc1ccc2ccccc2n1` [Example 92, ((2R,3S,4R,5R)-5-(4-aminopyrrolo[2,1-f][1,2,4]triazin-7-yl)-5-cyano-3,4-dihydroxytetrahydrofuran-2-yl)methyl ((R)-3-(octadecyloxy)-2-(quinolin-2-ylmethoxy)propyl) hydrogen phosphate], the EC50 in data set [1] (read-out: RSV EC50, Table 4) came out at 38 nM; in data set [2] (setting [8]) it was 120 nM. In data set [4] (MT4 CC50, Table 4), this molecule displayed a CC50 of 1760 nM.

`CCCCCCCCCCCCCCCCCOC[C@H](COP(=O)(O)OC[C@H]1O[C@@](C#N)(c2ccc3c(N)ncnn23)[C@H](O)[C@@H]1O)OCc1cc(F)cc(C#N)c1` [Example 35, ((2R,3S,4R,5R)-5-(4-aminopyrrolo[2,1-f][1,2,4]triazin-7-yl)-5-cyano-3,4-dihydroxytetrahydrofuran-2-yl)methyl ((R)-2-((3-cyano-5-fluorobenzyl)oxy)-3-(heptadecyloxy)propyl) hydrogen phosphate]: the EC50 in data set [1] (read-out: RSV EC50, Table 2a) turned out to be 40 nM; in data set [2] (setting [8]), 112 nM. This molecule also gave a CC50 in data set [4] (MT4 CC50, Table 2a) of 425 nM.

As to `CCCCCCCCCCCCCCCCCCOC[C@H](COP(=O)(O)OC[C@H]1O[C@@](C#N)(c2ccc3c(N)ncnn23)[C@H](O)[C@@H]1O)OCc1cnc(C(F)(F)F)nc1` [Example 122, [(2R,3S,4R,5R)-5-(4-Aminopyrrolo[2,1-f][1,2,4]triazin-7-yl)-5-cyano-3,4-dihydroxy-tetrahydrofuran-2-yl]methyl [(2R)-3-octadecoxy-2-[[2-(trifluoromethyl)pyrimidin-5-yl]methoxy]propyl] hydrogen phosphate], the EC50 in data set [1] (read-out: RSV EC50, Table 4) was determined as 39 nM; in data set [2] (setting [8]), 450 nM. The CC50 in data set [4] (MT4 CC50, Table 4) is 995 nM.
